In general, IC50 refers to the point on the concentration scale where inhibition reaches its midpoint.

The structures appear in SMILES notation.

The test system of series [1] is PANC-1. Kind of series: cells. Conditions: Homo sapiens, PANC-1, 48 h.
Description: Antiproliferative activity against human PANC-1 cells assessed as inhibition of cell growth incubated for 48 hrs by propidium iodide staining based fluorometer assay
Series [2] relates to A549. Kind of series: Antiproliferative activity against human A549 cells assessed as inhibition of cell growth incubated for 48 hrs by propidium iodide staining based fluorometer assay. The class given is functional. Conditions: A549, 48 h.
A short description of series [3]: Cytotoxicity against human MCF-10A cells assessed as cell viability incubated for 96 hrs by MTT assay. The class given is toxicity, cell-based. Details: concentration or dose not given beside the values. The settings on record: read-out: Activity. Background: Formazan colour is commonly taken as a measure of viable cells.
Series [4] concerns NCI-H460. Nature of the series: cells. Conditions: Homo sapiens, NCI-H460, 48 h.
Description: Antiproliferative activity against human NCI-H460 cells assessed as inhibition of cell growth incubated for 48 hrs by propidium iodide staining based fluorometer assay
Series [5] concerns PC-3. Nature of the series: cells. The settings on record: Homo sapiens, PC-3, 48 h.
Description: Antiproliferative activity against human PC-3 cells assessed as inhibition of cell growth incubated for 48 hrs by propidium iodide staining based fluorometer assay
Series [6] deals with HT-29. Kind of series: cells. Conditions: Homo sapiens, HT-29, 48 h.
Description: Antiproliferative activity against human HT-29 cells assessed as inhibition of cell growth incubated for 48 hrs by propidium iodide staining based fluorometer assay
Series [7] concerns MCF7. Kind of series: Antiproliferative activity against human MCF7 cells assessed as inhibition of cell growth incubated for 48 hrs by propidium iodide staining based fluorometer assay. Conditions: MCF7, 48 h. It is filed as functional.
Series [8] has as its system MIA PaCa-2. Kind of series: Antiproliferative activity against human MIA PaCa-2 cells assessed as inhibition of cell growth incubated for 48 hrs by propidium iodide staining based fluorometer assay. It is filed as functional. Conditions: MIA PaCa-2, 48 h.

Consider `COc1ccc(/C=C2\CC(C)c3ccccc3C2=O)c(Cl)c1OC` (stereo not given), for which the 50% inhibitory concentration (IC50) in series [1] worked out at 7.5 µM; in series [2], 7.7 µM; in series [4] it was 7.9 µM; in series [5], 7.3 µM; in series [6], 7.2 µM; in series [7], 7.2 µM. Besides, the IC50 in series [8] is 7.2 µM. For the same compound, in series [3], the viability at 96 h came out at 99%.

For the compound `COc1cccc(/C=C2\COC/C(=C\c3cccc(OC)c3Cl)C2=O)c1Cl`, the IC50 was 8.9 µM in series [1]; 8.4 µM in series [2]; 7.4 µM in series [4]; 8.3 µM in series [5]; 8.8 µM in series [6]; 7.3 µM in series [7]. Also, the IC50 in series [8] is 8.7 µM. For the same compound, the viability at 96 h in series [3] was 88%.

`COc1cc2c(cc1OC)C(=O)/C(=C/c1cccc(OC)c1Cl)CC2`: the IC50 in series [1] was 9.5 µM; in series [2], 9.2 µM; in series [4] it was 9.2 µM; in series [5] it was 9.2 µM; in series [6], 10.4 µM; in series [7] it was 10.5 µM. Besides, the IC50 in series [8] was determined as 9.9 µM. In addition, the viability at 96 h in series [3] was 91%.

Turning to `COc1cccc(/C=C2\CCc3ccc(Cl)cc3C2=O)c1Cl`, the IC50 in series [1] is 12.4 µM; in series [2], 13.3 µM; in series [4], 13.3 µM; in series [5], 13.7 µM; in series [6], 12.6 µM; in series [7] it was 14.1 µM. Moreover, in series [8], the IC50 turned out to be 12.8 µM. In series [3], the viability at 96 h amounted to 94%.

As to `COc1cc(/C=C2\CN(C)C/C(=C\c3cc(OC)c(OC)c(OC)c3Br)C2=O)c(Br)c(OC)c1OC`, the IC50 was determined as 1.8 µM in series [1]; 1.3 µM in series [2]; 1.8 µM in series [4]; 1.6 µM in series [5]; 1.1 µM in series [6]; 1.9 µM in series [7]. Moreover, in series [8], the IC50 was 1.9 µM. The viability at 96 h in series [3] amounted to 92%.

For the compound `COc1cc(/C=C2\CCC/C(=C\c3cc(OC)c(OC)c(OC)c3Br)C2=NO)c(Br)c(OC)c1OC`, the IC50 in series [1] came to 2.2 µM; in series [2] it was 2.6 µM; in series [4] it was 2.5 µM; in series [5], 2.5 µM; in series [6], 2.1 µM; in series [7], 2.9 µM. Moreover, the IC50 in series [8] is 2.6 µM. Also, the viability at 96 h in series [3] was found to be 95%.

Turning to `COc1cc(/C=C2\CCc3ccc(Cl)cc3C2=O)c(Br)c(OC)c1OC`, the IC50 in series [1] came out at 10.2 µM; in series [2], 10.7 µM; in series [4] it was 10.7 µM; in series [5], 10.2 µM; in series [6], 9.9 µM; in series [7], 12.9 µM. The IC50 in series [8] is 10.4 µM. Further, the viability at 96 h in series [3] amounted to 90%.

Consider `COc1cccc(/C=C2\CCc3c(O)cccc3C2=O)c1Cl`, for which the IC50 in series [1] was determined as 4.2 µM; in series [2], 4.4 µM; in series [4] it was 4.9 µM; in series [5] it was 5.2 µM; in series [6], 5.1 µM; in series [7] it was 4.4 µM. The IC50 in series [8] turned out to be 4.9 µM. The viability at 96 h in series [3] was determined as 96%.

As for `COc1cccc(/C=C2\CCc3c(OC)ccc(OC)c3C2=O)c1Cl`, the IC50 in series [1] came out at 7.4 µM; in series [2] it was 8.8 µM; in series [4], 7.9 µM; in series [5] it was 7.2 µM; in series [6], 7.1 µM; in series [7], 7.2 µM. In addition, the IC50 in series [8] was 6.7 µM. Moreover, the viability at 96 h in series [3] was 98%.

As for `COc1cc(/C=C2\CCc3c(O)cccc3C2=O)c(Br)c(OC)c1OC`, the concentration for half-maximal inhibition (IC50) in series [1] came to 1.9 µM; in series [2], 1.6 µM; in series [4], 1.9 µM; in series [5], 2.2 µM; in series [6], 1.9 µM; in series [7], 1.8 µM. The IC50 in series [8] is 1.9 µM. For the same compound, in series [3], the viability at 96 h is 93%.

As to `COc1cc(/C=C2\CC(C(C)C)C/C(=C\c3cc(OC)c(OC)c(OC)c3Br)C2=O)c(Br)c(OC)c1OC` (stereo not given), the half-inhibitory concentration (IC50) in series [1] stood at 7.2 µM; in series [2] it was 7.6 µM; in series [4] it was 7.4 µM; in series [5] it was 7.2 µM; in series [6], 6.7 µM; in series [7], 8.1 µM. Moreover, the IC50 in series [8] was determined as 7.5 µM. Further, the viability at 96 h in series [3] was 89%.

As to `CCN(CC)CCO/N=C1\C(=C\c2cc(OC)c(OC)c(OC)c2Br)CCc2ccc([N+](=O)[O-])cc21`, the IC50 in series [1] is 4.2 µM; in series [2], 4.3 µM; in series [4], 4.6 µM; in series [5], 4.4 µM; in series [6], 4.5 µM; in series [7], 4.9 µM. For the same compound, the 50% inhibitory concentration (IC50) in series [8] came out at 4 µM. The viability at 96 h in series [3] worked out at 97%.

As to `COc1cccc(/C=C2\CC(C(C)C)C/C(=C\c3cccc(OC)c3Cl)C2=O)c1Cl` (stereo not given), the IC50 in series [1] turned out to be 14.5 µM; in series [2], 13.4 µM; in series [4], 13.9 µM; in series [5], 14.1 µM; in series [6], 12.1 µM; in series [7], 15.2 µM. In addition, the IC50 in series [8] turned out to be 16.7 µM. Moreover, the viability at 96 h in series [3] was 93%.

Turning to `COc1ccc(OC)c2c1CC/C(=C\c1ccc(OC)c(OC)c1Cl)C2=O`, the IC50 in series [1] worked out at 4.3 µM; in series [2], 4.3 µM; in series [4], 3.8 µM; in series [5], 4.5 µM; in series [6], 4 µM; in series [7], 4.1 µM. For the same compound, the concentration for half-maximal inhibition (IC50) in series [8] was 3.9 µM. Besides, in series [3], the viability at 96 h came out at 90%.

Turning to `COc1cccc(/C=C2\CN(Cc3ccccc3)C/C(=C\c3cccc(OC)c3Cl)C2=O)c1Cl`, the IC50 worked out at 17.5 µM in series [1]; 15.4 µM in series [2]; 14.1 µM in series [4]; 18.7 µM in series [5]; 15.9 µM in series [6]; 17.6 µM in series [7]. Moreover, in series [8], the half-maximal inhibitory concentration (IC50) turned out to be 17 µM. Besides, in series [3], the viability at 96 h stood at 89%.

In the case of `COc1cc(/C=C2\CCc3ccc(F)cc3C2=O)c(Br)c(OC)c1OC`, the IC50 in series [1] was determined as 8.5 µM; in series [2], 8.2 µM; in series [4], 8.9 µM; in series [5], 10.3 µM; in series [6] it was 9.6 µM; in series [7] it was 10.1 µM. Also, the IC50 in series [8] is 8.9 µM. The viability at 96 h in series [3] is 93%.

As to `COc1cc(/C=C2\CN(Cc3ccccc3)C/C(=C\c3cc(OC)c(OC)c(OC)c3Br)C2=O)c(Br)c(OC)c1OC`, the IC50 came to 12.2 µM in series [1]; 11.1 µM in series [2]; 12.3 µM in series [4]; 14.6 µM in series [5]; 12 µM in series [6]; 12.8 µM in series [7]. Besides, the IC50 in series [8] worked out at 11.9 µM. Further, the viability at 96 h in series [3] is 91%.

In the case of `COc1ccc(/C=C2\CCc3ccc([N+](=O)[O-])cc3C2=O)c(Cl)c1OC`, the 50% inhibitory concentration (IC50) in series [1] amounted to 1.9 µM; in series [2] it was 1.9 µM; in series [4], 1.8 µM; in series [5], 1.6 µM; in series [6], 1.9 µM; in series [7], 2.3 µM. Moreover, the IC50 in series [8] is 1.7 µM. Also, in series [3], the viability at 96 h amounted to 90%.

With `COc1ccc2c(c1)CC/C(=C\c1cccc(OC)c1Cl)C2=O`, the IC50 in series [1] came out at 4.5 µM; in series [2], 4.6 µM; in series [4], 4.7 µM; in series [5], 4.7 µM; in series [6], 4.4 µM; in series [7], 5.1 µM. For the same compound, the IC50 in series [8] turned out to be 4 µM. For the same compound, the viability at 96 h in series [3] was 95%.

Turning to `COc1ccc(/C=C2\COC/C(=C\c3ccc(OC)c(OC)c3Cl)C2=O)c(Cl)c1OC`, the IC50 in series [1] was found to be 5.8 µM; in series [2] it was 5.8 µM; in series [4] it was 5.3 µM; in series [5], 5.1 µM; in series [6] it was 5.1 µM; in series [7] it was 5.6 µM. For the same compound, in series [8], the IC50 was 5.2 µM. Moreover, in series [3], the viability at 96 h was 89%.

Turning to `COc1ccc(/C=C2\CCC/C(=C\c3ccc(OC)c(OC)c3Cl)C2=O)c(Cl)c1OC`, the IC50 was 4.2 µM in series [1]; 3.9 µM in series [2]; 4.1 µM in series [4]; 5.2 µM in series [5]; 3.7 µM in series [6]; 4.7 µM in series [7]. The IC50 in series [8] is 4.2 µM. Moreover, the viability at 96 h in series [3] worked out at 90%.

Consider `COc1cccc(/C=C2\CCc3ccc([N+](=O)[O-])cc3C2=O)c1Cl`, for which the half-maximal inhibitory concentration (IC50) amounted to 3.5 µM in series [1]; 3.6 µM in series [2]; 3.1 µM in series [4]; 3.1 µM in series [5]; 3.5 µM in series [6]; 3.3 µM in series [7]. Also, the 50% inhibitory concentration (IC50) in series [8] worked out at 3.4 µM. Besides, the viability at 96 h in series [3] is 95%.

`COc1cccc(/C=C2\CCc3ccc(F)cc3C2=O)c1Cl`: the IC50 in series [1] was 12.4 µM; in series [2] it was 11.1 µM; in series [4] it was 15.2 µM; in series [5], 12.6 µM; in series [6], 12.9 µM; in series [7] it was 12.9 µM. In addition, in series [8], the IC50 is 15.2 µM. The viability at 96 h in series [3] amounted to 90%.

For `COc1ccc(/C=C2\CC(C(C)C)C/C(=C\c3ccc(OC)c(OC)c3Cl)C2=O)c(Cl)c1OC` (stereo not given), the IC50 in series [1] came to 12.2 µM; in series [2], 12.9 µM; in series [4] it was 15.3 µM; in series [5], 12.6 µM; in series [6], 13.2 µM; in series [7], 11.9 µM. For the same compound, the concentration for half-maximal inhibition (IC50) in series [8] came out at 11.8 µM. The viability at 96 h in series [3] came to 87%.

Take `COc1cc(/C=C2\COC/C(=C\c3cc(OC)c(OC)c(OC)c3Br)C2=O)c(Br)c(OC)c1OC`: the IC50 was found to be 4.9 µM in series [1]; 4.1 µM in series [2]; 5 µM in series [4]; 4.6 µM in series [5]; 4.2 µM in series [6]; 4.3 µM in series [7]. Moreover, the IC50 in series [8] turned out to be 4.6 µM. Besides, the viability at 96 h in series [3] was found to be 92%.

(Values after ChEMBL document CHEMBL5257024, “Synthesis of α,β-Unsaturated Carbonyl-Based Compounds, Oxime and Oxime Ether Analogs as Potential Anticancer Agents for Overcoming Cancer Multidrug Resistance by Modulation of Efflux Pumps in Tumor Cells” (J Med Chem, 2016).)
